# Source: PubChem BioAssay AID2060490 (Molecular Pharmacology Branch, DTP, NCI, 2025)
# Values joined by “and” are separate entries in the source; they are usually repeats but may differ in a detail not shown here. Identical values can stand only once.
# Test system: 885512-296-R-J2-PDC complex spheroid viability
# Assay: Anticancer human tumor 885512-296-R-J2-PDC patient-derived breast carcinoma cell line growth inhibition [GQUAD]
# Conditions: for viability, T/C: stronger effect = lower value
# Text: DNA G-quadruplex Stabilizer Agents in Combinations in Complex Spheroids
# A high-throughput screen of multi-cell type tumor spheroids was designed to identify active combinations of DNA G-quadruplex stabilizer agents and targeted small molecules. Complex spheroids include a stromal component modeled by human endothelial cells (HUVEC) and fibroblasts modeled by human mesenchymal stem cells (MSCs). The concentration ranges selected for each drug and investigational agent were based upon clinically achievable concentrations if the clinical Cmax of the agent was known.
# Compounds. The drugs and investigational agents: pidnarulex (CX-5461; NSC782164), APTO-253 (NSC789042), BRACO-19 (NSC847499), peposertib (NSC802822), ceralasertib (NSC780249), elimusertib (NSC800525), camonsertib (NSC841442), AZD-1390 (NSC803789), olaparib (NSC753686), talazoparib (NSC767125), ART-558 (NSC835418), sotorasib (NSC818433), MRTX-1133 (NSC836407), SN-38 (NSC673596), topotecan (NSC609699), etoposide (NSC141540), doxorubicin (NSC123127), gemcitabine (NSC613327), 5-fluorouracil (NSC19893), paclitaxel (NSC125973), vemurafenib (NSC761431), panobinostat (NSC761190), R-306465 (JNJ-16241199; NSC773264), adavosertib (NSC754352), TP-3654 (NSC805149), carboplatin (NSC241240), KSQ-4279 (NSC840948), and staurosporine (NSC755774) were obtained from the National Cancer Institute (NCI) Developmental Therapeutics Program Chemical Repository (34). The FDA-approved anticancer drug set is available from the NCI Developmental Therapeutics Program. […] The stock solutions were prepared in dimethyl sulfoxide (DMSO, Sigma-Aldrich, St. Louis, MO, cat. D2650) at 800-fold the tested concentration and stored at -70 degrees C prior to their use. All drugs and investigational agents were tested over a range starting from a high concentration at or near the clinical Cmax and decreasing in half-log increments. If the clinical Cmax for an agent had not been determined, the highest concentration tested was 10 microM.
# 2.3 Cell Culture. All cells were maintained in an incubator at 37 degrees C and 5% CO2 with 95% humidity. The PDC lines were cultured according to standard operating procedures established by the NCI PDMR. All PDCs were thawed and cultured in Matrigel-coated flasks prepared with a working solution of 1X Ham's F-12 nutrient mix, without supplementation (Invitrogen, cat. 11765054), 100 U/mL penicillin-streptomycin (Invitrogen, cat. 15140122), and 2.5% Matrigel (Corning Inc., cat. 354248) for the first three passages. The 857933-349-R-J2-PDC line was cultured in 6C/Colon 1B media, which includes advanced DMEM/F-12 (Thermo Fisher Scientific, cat. 12634028), 10 mM HEPES (Thermo Fisher Scientific, cat. 15630080), 1X GlutaMAX supplement (Thermo Fisher Scientific, cat. 35050061), 0.1 mg/mL primocin (InvivoGen, cat. ant-pm-2), 10% defined fetal bovine serum, heat inactivated (HyClone Laboratories Inc., cat. SH30070.03HI), 50% L-WRN conditioned media (ATCC, cat. CRL-3276), 1.25 mM N-Acetyl-L-cysteine (Sigma-Aldrich, cat. A9165), 10 mM nicotinamide (Sigma-Aldrich, cat. N0636), 1X B-27 supplement (Thermo Fisher Scientific, cat. 17504044), 1X N-2 supplement (Thermo Fisher Scientific, cat. 17502048), 10 microM Y-27632 dihydrochloride (Tocris Bioscience, cat. 1254), and 50 ng/mL human EGF recombinant protein (Thermo Fisher Scientific, cat. PHG0311). The 485176-168-R4-J1-PDC line was cultured in Panc media, which includes all 6C/Colon 1B media components plus 100 ng/mL human FGF-10 (Thermo Fisher Scientific, cat. 100-26), 500 nM SB-431542 (Selleckchem, cat. S1067), and gastrin (Tocris, cat. 3006).
# […]
# 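Note: spheroids exposed to the compounds for one week.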
# 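Throughout, for viability, T/C: percent of tumor spheroid viability relative to DMSO vehicle control wells.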
smiles,measurement,setting,value
C=CC(=O)N1CCN(c2nc(=O)n(-c3c(C)ccnc3C(C)C)c3nc(-c4c(O)cccc4F)c(F)cc23)C(C)C1 (centres undefined),"viability, T/C",compound 0.0316 µM,99% and 103% and 101%
same,"viability, T/C",compound 0.1 µM,91% and 94.9% and 108%
same,"viability, T/C",compound 0.316 µM,109% and 105% and 97.4%
same,"viability, T/C",compound 1 µM,109% and 98.9% and 95.3%
same,"viability, T/C",compound 3.16 µM,99.7% and 103% and 91.2%
same,"viability, T/C",compound 10 µM,96.4% (2×) and 95.7%
same,IC50,curve of compound,> 10000 nM
COc1cccc2c1C(=O)c1c(O)c3c(c(O)c1C2=O)CC(O)(C(=O)CO)CC3OC1CC(N)C(O)C(C)O1 (centres undefined),"viability, T/C",compound 0.0316 µM,87.2% and 85.7% and 88.6%
same,"viability, T/C",compound 0.1 µM,44.6% and 31.4% and 27.5%
same,"viability, T/C",compound 0.316 µM,23.1% and 20.1% and 23.4%
same,"viability, T/C",compound 1 µM,5.91% and 6.03% and 8.79%
same,"viability, T/C",compound 3.16 µM,0.33% and 0.51% and 0.46%
same,"viability, T/C",compound 10 µM,2.28% and 1.5% and 4.09%
same,IC50,curve of compound,88.8 nM and 70.9 nM and 70 nM
O=C(NO)c1cnc(N2CCN(S(=O)(=O)c3ccc4ccccc4c3)CC2)nc1,"viability, T/C",compound 0.316 µM,3.89% and 20.5% and 27.5%
same,"viability, T/C",compound 1 µM,2.64% and 2.67% and 5.87%
same,"viability, T/C",compound 3.16 µM,4.12% and 0.29% and 0.35%
same,"viability, T/C",compound 10 µM,3.42% and 1.01% and 0.1%
same,IC50,curve of compound,< 31.6 nM and 121 nM and 187 nM
Cn1ncnc1[C@H]1c2n[nH]c(=O)c3cc(F)cc(c23)N[C@@H]1c1ccc(F)cc1,"viability, T/C",compound 0.000999 µM,100% and 96.8% and 93.9%
same,"viability, T/C",compound 0.00316 µM,93.9% and 87.6% and 102%
same,"viability, T/C",compound 0.00999 µM,80.8% and 90.4% and 90%
same,"viability, T/C",compound 0.0316 µM,81.4% and 84.2% and 82.3%
same,"viability, T/C",compound 0.0999 µM,75.4% and 66.1% and 67.8%
same,"viability, T/C",compound 0.316 µM,50.8% and 45.5% and 53.5%
same,IC50,curve of compound,> 316 nM and 246 nM
CN(C)c1ccc(Nc2c3ccc(NC(=O)CCN4CCCC4)cc3nc3cc(NC(=O)CCN4CCCC4)ccc23)cc1,"viability, T/C",compound 0.0316 µM,100% [middle of 12 runs]
same,"viability, T/C",compound 0.1 µM,102% [middle of 12 runs]
same,"viability, T/C",compound 0.316 µM,105% [middle of 12 runs]
same,"viability, T/C",compound 1 µM,102% [middle of 12 runs]
same,"viability, T/C",compound 3.16 µM,103% [middle of 12 runs]
same,"viability, T/C",compound 10 µM,21.1% [middle of 12 runs]
same,IC50,"compound alone, run of 04/22/2024",6.43 µM [middle of 11 runs]
CC[C@@]1(O)C(=O)OCc2c1cc1n(c2=O)Cc2cc3c(CN(C)C)c(O)ccc3nc2-1,"viability, T/C",compound 0.000999 µM,116% and 100% and 107%
same,"viability, T/C",compound 0.00316 µM,93.6% and 104% and 96.9%
same,"viability, T/C",compound 0.00999 µM,84% and 86.7% and 91.6%
same,"viability, T/C",compound 0.0316 µM,47.7% and 30.2% and 36.7%
same,"viability, T/C",compound 0.0999 µM,11.4% and 8.49% and 7.63%
same,"viability, T/C",compound 0.316 µM,4.95% and 2.59% and 5.86%
same,IC50,curve of compound,27.4 nM and 21.2 nM and 23.9 nM
CCCS(=O)(=O)Nc1ccc(F)c(C(=O)c2c[nH]c3ncc(-c4ccc(Cl)cc4)cc23)c1F,"viability, T/C",compound 0.0316 µM,115% (2×) and 92.5%
same,"viability, T/C",compound 0.1 µM,103% and 94.5% and 95.3%
same,"viability, T/C",compound 0.316 µM,68.9% and 106% and 108%
same,"viability, T/C",compound 1 µM,8.17% and 109% and 104%
CCc1c2c(nc3ccc(O)cc13)-c1cc3c(c(=O)n1C2)COC(=O)[C@]3(O)CC + Cc1cnc(CNC(=O)c2c(=O)c3ccc(N4CCCN(C)CC4)nc3n3c2sc2ccccc23)cn1,IC50,"curve of first compound, second compound 0.0316 µM",< 0.999 nM
same,IC50,"curve of first compound, second compound 0.1 µM",< 0.999 nM
same,IC50,"curve of first compound, second compound 0.316 µM",< 0.999 nM
same,IC50,"curve of first compound, second compound 1 µM",< 0.999 nM
same,IC50,"curve of first compound, second compound 3.16 µM",< 0.999 nM
same,IC50,"curve of first compound, second compound 10 µM",< 0.999 nM
same,"viability, T/C","second compound 0.0316 µM, first compound 0.000999 µM",17.9%
same,"viability, T/C","second compound 0.0316 µM, first compound 0.00316 µM",8.3%
same,"viability, T/C","second compound 0.0316 µM, first compound 0.00999 µM",5.81%
same,"viability, T/C","second compound 0.0316 µM, first compound 0.0316 µM",3.27%
same,"viability, T/C","second compound 0.0316 µM, first compound 0.0999 µM",2%
same,"viability, T/C","second compound 0.0316 µM, first compound 0.316 µM",1.37%
same,"viability, T/C","second compound 0.1 µM, first compound 0.000999 µM",17%
same,"viability, T/C","second compound 0.1 µM, first compound 0.00316 µM",10.5%
same,"viability, T/C","second compound 0.1 µM, first compound 0.00999 µM",6.32%
same,"viability, T/C","second compound 0.1 µM, first compound 0.0316 µM",4.29%
same,"viability, T/C","second compound 0.1 µM, first compound 0.0999 µM",2.34%
same,"viability, T/C","second compound 0.1 µM, first compound 0.316 µM",1.47%
same,"viability, T/C","second compound 0.316 µM, first compound 0.000999 µM",16.3%
same,"viability, T/C","second compound 0.316 µM, first compound 0.00316 µM",12.1%
same,"viability, T/C","second compound 0.316 µM, first compound 0.00999 µM",9.75%
same,"viability, T/C","second compound 0.316 µM, first compound 0.0316 µM",4.25%
same,"viability, T/C","second compound 0.316 µM, first compound 0.0999 µM",1.6%
same,"viability, T/C","second compound 0.316 µM, first compound 0.316 µM",1.03%
same,"viability, T/C","second compound 1 µM, first compound 0.000999 µM",16.7%
same,"viability, T/C","second compound 1 µM, first compound 0.00316 µM",14.3%
same,"viability, T/C","second compound 1 µM, first compound 0.00999 µM",7.19%
same,"viability, T/C","second compound 1 µM, first compound 0.0316 µM",1.29%
same,"viability, T/C","second compound 1 µM, first compound 0.0999 µM",0.07%
same,"viability, T/C","second compound 1 µM, first compound 0.316 µM",0.1%
same,"viability, T/C","second compound 3.16 µM, first compound 0.000999 µM",26.4%
same,"viability, T/C","second compound 3.16 µM, first compound 0.00316 µM",19.8%
same,"viability, T/C","second compound 3.16 µM, first compound 0.00999 µM",2.82%
same,"viability, T/C","second compound 3.16 µM, first compound 0.0316 µM",0.24%
same,"viability, T/C","second compound 3.16 µM, first compound 0.0999 µM",0.06%
same,"viability, T/C","second compound 3.16 µM, first compound 0.316 µM",0.1%
same,"viability, T/C","second compound 10 µM, first compound 0.000999 µM",0.08%
same,"viability, T/C","second compound 10 µM, first compound 0.00316 µM",0.14%
same,"viability, T/C","second compound 10 µM, first compound 0.00999 µM",0.13%
same,"viability, T/C","second compound 10 µM, first compound 0.0316 µM",0.1%
same,"viability, T/C","second compound 10 µM, first compound 0.0999 µM",0.11%
same,"viability, T/C","second compound 10 µM, first compound 0.316 µM",0.13%
Cc1cnc(CNC(=O)c2c(=O)c3ccc(N4CCCN(C)CC4)nc3n3c2sc2ccccc23)cn1,"viability, T/C",compound 0.0316 µM,86.1% [middle of 12 runs]
same,"viability, T/C",compound 0.316 µM,28.4% [middle of 12 runs]
same,"viability, T/C",compound 1 µM,26.3% [middle of 12 runs]
same,"viability, T/C",compound 3.16 µM,27% [middle of 12 runs]
same,"viability, T/C",compound 10 µM,0.17% [middle of 9 runs]
same,IC50,"compound alone, run of 04/16/2024",166 nM [middle of 12 runs]
COc1ccc([C@@H](O)c2cc(-c3ncnc4cc(N5CCOCC5)ccc34)c(F)cc2Cl)nn1,"viability, T/C",compound 0.0316 µM,110% and 101% and 96%
same,"viability, T/C",compound 0.1 µM,103% and 106% and 92.4%
same,"viability, T/C",compound 0.316 µM,101% and 89.6% and 92.7%
same,"viability, T/C",compound 1 µM,97.4% and 79.5% and 91.5%
same,"viability, T/C",compound 3.16 µM,79.2% and 89.1% and 88.5%
same,"viability, T/C",compound 10 µM,64.3% and 53.6% and 58.4%
same,IC50,curve of compound,> 10000 nM
